These results are taken from a melting point compilation (Tetko et al.).

`COC(=O)c1ccc(-c2nn[nH]n2)cc1`: the melting point was 230 to 232 °C.

Consider `Cc1cccc(COc2cccc(CC(=O)O)c2)c1`, for which the melting point lay in the range of 91 to 93 °C. The molecule `Nc1nonc1-c1ccc(Cl)cc1Cl` returned a melting point of 105 to 107 °C. For the molecule `O=C(NCCCCl)C1CCCC1`, the melting point lay within 66 to 68 °C. `Cc1nc(Cl)cc(-c2ccccn2)n1`: the melting point was 75 to 77 °C. `O=C1NC(=O)C(CCS)N1` (stereo not drawn) displayed a melting point of 133 to 135 °C.

As for `CNCc1ccc(N)nc1`, the melting point lay in the range of 84 to 86 °C.

Take `CC(=O)N1CCC(C)(C(=O)O)C1` (stereo not drawn): the melting point fell in the range of 120 to 122 °C. As for `O=C(O)CNC(=O)c1ccc(F)cc1`, the figure is 169 to 171 °C; as for `O=c1cc(CO)nc2ccccn12`, 172 to 174 °C. In the case of `Cc1cc(=O)[nH]c2c1cnn2C1CCCC1`, the melting point is 259 to 261 °C. `Cc1cc(S(N)(=O)=O)cc(C(=O)O)c1C`: the melting point is 261 to 263 °C. As to `O=C(O)c1cc2cc(Br)cc(Br)c2o1`, the melting point lay in the range of 279 to 281 °C. As to `CCOC(=O)c1ccc(N2CC(N)C2)nc1`, the melting point was 72 to 74 °C. In turn, `O=C(Nc1sccc1C(=O)O)c1ccco1` displayed a melting point of 196 to 198 °C.

Consider `CC(C)(C)C1CNC(=O)C1` (stereo not drawn), for which the melting point lay within 130 to 132 °C. Take `CC(C)c1cnc(S)n1C1CC1`: the melting point is 175 to 177 °C. As for `NCc1ncc(-c2ccccc2)[nH]1`, the figure is 142 to 144 °C. The same measure for `CC(=O)c1ccc(F)cc1N(C)C`: 57 to 59 °C. In turn, `Cc1cc(C(=O)CCl)c(C)n1Cc1ccc(F)cc1` showed a melting point of 94 to 96 °C. As to `O=C(O)Cn1c(=O)n(C2=CCCCC2)c2ccccc21`, the melting point fell in the range of 145 to 147 °C. In the case of `Brc1ccc(-n2cccn2)cc1`, the melting point lay in the range of 69 to 71 °C. `CC(C)CN1CCC(C(=O)O)CC1` returned a melting point of 75 to 77 °C.

In turn, `Cc1ccc(Cc2cnc(N)s2)cc1F` showed a melting point of 139 to 141 °C.

`N#Cc1cccc(NC(=O)CCCl)c1` displayed a melting point of 98 to 100 °C. The molecule `Brc1ccc(-c2ncno2)cc1` showed a melting point of 109 to 111 °C. With `CS(=O)(=O)c1ccc(N)c(Br)c1`, the melting point was in the range of 207 to 209 °C. Regarding `COC(=O)c1c(CC(=O)O)[nH]c(C(C)=O)c1C`, the melting point fell in the range of 205 to 207 °C.

In turn, `CC(C)(C)OC(=O)N1CCCc2ccc(N)cc21` had a melting point of 90 to 92 °C. In the case of `CC(C)c1ccc(-c2nnn[nH]2)cc1`, the melting point is 186 to 188 °C. `Cc1c(Cl)cnc(NC(=O)CCl)c1Cl` gave a melting point of 268 to 270 °C. `Cn1ccnc1Sc1ccc(N)cc1` displayed a melting point of 117 to 119 °C. The same measure for `c1ccc(OCCc2nc3ccccc3[nH]2)cc1`: 136 to 138 °C; for `COc1ccc(-c2ccc(CN)s2)cc1`: 114 to 116 °C. `Cc1c(Cl)ccc2ccc(=O)[nH]c12` registered a melting point of 269 to 271 °C.

`CC(C)(C)OC(=O)N1CCC(C(=O)O)(c2ccccc2)CC1` gave a melting point of 116 to 118 °C. `O=C(CCCc1cccs1)Nc1cccc(C(=O)O)c1`: the melting point was 198 to 200 °C. As for `Cc1nn(-c2ccc(F)cc2)c(C)c1C(=O)O`, the figure is 219 to 221 °C. Molecule `CN(C)c1cccc(N)n1` had a melting point of 41 to 43 °C.

Take `O=C(O)c1ccc(S(=O)(=O)NC2CC2)cc1`: the melting point is 243 to 245 °C. `O=C1CNc2ccc(S(=O)(=O)N3CCCCC3)cc2N1` gave a melting point of 144 to 146 °C. The molecule `Cc1sc2ncnc(N3CCC(C(=O)O)CC3)c2c1C` registered a melting point of 244 to 246 °C. The molecule `CCOc1ccc(Br)cc1S(N)(=O)=O` displayed a melting point of 143 to 145 °C.

The molecule `O=C1C(=O)N(Cc2ccc(Br)cc2)c2ccccc21` registered a melting point of 182 to 184 °C. For `O=C(O)CCSc1ccc(Cl)cc1`, the melting point was 85 to 87 °C. Turning to `O=C(NC(Cc1c[nH]cn1)C(=O)O)C1CCCCC1` (stereo not drawn), the melting point was 127 to 129 °C. Regarding `CC(C)OCc1ccc(C(=O)O)cc1`, the melting point lay within 114 to 116 °C. Consider `CC(C)C(NCC(F)(F)F)C(=O)O` (stereo not drawn), for which the melting point lay within 128 to 130 °C.
